Laboratory results reported in ChEMBL document CHEMBL5260810, “Inhibition of bromodomain-containing protein 9 for the prevention of epigenetically-defined drug resistance” (Bioorg Med Chem Lett, 2017).
Active and inactive are the calls of the source. The calls are words filed in the database; no cut-off is given here.

What was measured:
[1] = target: Chromatin remodeling regulator CECR2 (Homo sapiens, UniProt Q9BXF3); assay: Displacement of biotinylated small-molecule ligand from recombinant His-tagged CECR2 (unknown origin) measured after 10 mins by TR-FRET assay
Sequence of Chromatin remodeling regulator CECR2 (Q9BXF3 whole entry): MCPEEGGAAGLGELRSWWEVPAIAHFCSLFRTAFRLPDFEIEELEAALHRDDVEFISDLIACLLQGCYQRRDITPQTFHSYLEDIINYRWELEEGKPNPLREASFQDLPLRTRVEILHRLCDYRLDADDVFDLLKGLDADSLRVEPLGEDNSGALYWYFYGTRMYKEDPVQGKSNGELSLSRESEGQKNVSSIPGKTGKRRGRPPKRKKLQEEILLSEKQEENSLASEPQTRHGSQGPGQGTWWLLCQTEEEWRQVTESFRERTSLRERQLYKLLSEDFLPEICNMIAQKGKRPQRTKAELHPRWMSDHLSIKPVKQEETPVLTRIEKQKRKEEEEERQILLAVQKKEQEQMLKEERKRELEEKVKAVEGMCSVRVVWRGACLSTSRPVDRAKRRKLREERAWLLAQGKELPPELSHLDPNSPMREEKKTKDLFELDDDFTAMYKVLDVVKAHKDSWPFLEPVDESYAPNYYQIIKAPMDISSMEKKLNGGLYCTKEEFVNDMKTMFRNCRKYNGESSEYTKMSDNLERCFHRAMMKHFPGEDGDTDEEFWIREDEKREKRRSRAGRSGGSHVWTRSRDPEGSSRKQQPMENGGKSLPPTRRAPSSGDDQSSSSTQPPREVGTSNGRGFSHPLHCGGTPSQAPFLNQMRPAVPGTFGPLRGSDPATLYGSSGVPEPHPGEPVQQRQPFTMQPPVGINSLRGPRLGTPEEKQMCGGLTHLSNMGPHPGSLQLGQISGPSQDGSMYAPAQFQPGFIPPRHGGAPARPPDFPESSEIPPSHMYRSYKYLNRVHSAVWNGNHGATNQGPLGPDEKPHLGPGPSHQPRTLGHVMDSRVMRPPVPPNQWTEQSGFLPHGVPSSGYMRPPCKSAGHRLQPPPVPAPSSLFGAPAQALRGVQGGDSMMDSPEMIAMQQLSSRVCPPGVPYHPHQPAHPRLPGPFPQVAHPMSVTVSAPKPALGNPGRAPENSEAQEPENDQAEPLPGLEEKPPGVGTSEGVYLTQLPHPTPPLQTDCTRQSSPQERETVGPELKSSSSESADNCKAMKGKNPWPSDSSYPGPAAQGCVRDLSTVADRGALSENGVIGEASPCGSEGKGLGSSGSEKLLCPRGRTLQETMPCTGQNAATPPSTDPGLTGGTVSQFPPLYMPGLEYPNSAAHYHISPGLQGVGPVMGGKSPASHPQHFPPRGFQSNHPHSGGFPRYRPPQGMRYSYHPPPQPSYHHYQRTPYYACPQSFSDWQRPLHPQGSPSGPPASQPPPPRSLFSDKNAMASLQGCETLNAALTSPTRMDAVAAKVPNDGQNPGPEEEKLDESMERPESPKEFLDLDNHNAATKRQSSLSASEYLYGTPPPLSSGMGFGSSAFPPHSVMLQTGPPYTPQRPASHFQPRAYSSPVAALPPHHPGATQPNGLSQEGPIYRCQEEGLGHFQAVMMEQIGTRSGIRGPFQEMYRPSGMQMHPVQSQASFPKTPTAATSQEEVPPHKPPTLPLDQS

[2] = target: Transcription initiation factor TFIID subunit 1 (Homo sapiens, UniProt P21675); assay: Displacement of biotinylated small-molecule ligand from recombinant His-tagged TAF1 bromodomain 2 (unknown origin) measured after 10 mins by TR-FRET assay
Sequence of Transcription initiation factor TFIID subunit 1 (P21675 whole entry): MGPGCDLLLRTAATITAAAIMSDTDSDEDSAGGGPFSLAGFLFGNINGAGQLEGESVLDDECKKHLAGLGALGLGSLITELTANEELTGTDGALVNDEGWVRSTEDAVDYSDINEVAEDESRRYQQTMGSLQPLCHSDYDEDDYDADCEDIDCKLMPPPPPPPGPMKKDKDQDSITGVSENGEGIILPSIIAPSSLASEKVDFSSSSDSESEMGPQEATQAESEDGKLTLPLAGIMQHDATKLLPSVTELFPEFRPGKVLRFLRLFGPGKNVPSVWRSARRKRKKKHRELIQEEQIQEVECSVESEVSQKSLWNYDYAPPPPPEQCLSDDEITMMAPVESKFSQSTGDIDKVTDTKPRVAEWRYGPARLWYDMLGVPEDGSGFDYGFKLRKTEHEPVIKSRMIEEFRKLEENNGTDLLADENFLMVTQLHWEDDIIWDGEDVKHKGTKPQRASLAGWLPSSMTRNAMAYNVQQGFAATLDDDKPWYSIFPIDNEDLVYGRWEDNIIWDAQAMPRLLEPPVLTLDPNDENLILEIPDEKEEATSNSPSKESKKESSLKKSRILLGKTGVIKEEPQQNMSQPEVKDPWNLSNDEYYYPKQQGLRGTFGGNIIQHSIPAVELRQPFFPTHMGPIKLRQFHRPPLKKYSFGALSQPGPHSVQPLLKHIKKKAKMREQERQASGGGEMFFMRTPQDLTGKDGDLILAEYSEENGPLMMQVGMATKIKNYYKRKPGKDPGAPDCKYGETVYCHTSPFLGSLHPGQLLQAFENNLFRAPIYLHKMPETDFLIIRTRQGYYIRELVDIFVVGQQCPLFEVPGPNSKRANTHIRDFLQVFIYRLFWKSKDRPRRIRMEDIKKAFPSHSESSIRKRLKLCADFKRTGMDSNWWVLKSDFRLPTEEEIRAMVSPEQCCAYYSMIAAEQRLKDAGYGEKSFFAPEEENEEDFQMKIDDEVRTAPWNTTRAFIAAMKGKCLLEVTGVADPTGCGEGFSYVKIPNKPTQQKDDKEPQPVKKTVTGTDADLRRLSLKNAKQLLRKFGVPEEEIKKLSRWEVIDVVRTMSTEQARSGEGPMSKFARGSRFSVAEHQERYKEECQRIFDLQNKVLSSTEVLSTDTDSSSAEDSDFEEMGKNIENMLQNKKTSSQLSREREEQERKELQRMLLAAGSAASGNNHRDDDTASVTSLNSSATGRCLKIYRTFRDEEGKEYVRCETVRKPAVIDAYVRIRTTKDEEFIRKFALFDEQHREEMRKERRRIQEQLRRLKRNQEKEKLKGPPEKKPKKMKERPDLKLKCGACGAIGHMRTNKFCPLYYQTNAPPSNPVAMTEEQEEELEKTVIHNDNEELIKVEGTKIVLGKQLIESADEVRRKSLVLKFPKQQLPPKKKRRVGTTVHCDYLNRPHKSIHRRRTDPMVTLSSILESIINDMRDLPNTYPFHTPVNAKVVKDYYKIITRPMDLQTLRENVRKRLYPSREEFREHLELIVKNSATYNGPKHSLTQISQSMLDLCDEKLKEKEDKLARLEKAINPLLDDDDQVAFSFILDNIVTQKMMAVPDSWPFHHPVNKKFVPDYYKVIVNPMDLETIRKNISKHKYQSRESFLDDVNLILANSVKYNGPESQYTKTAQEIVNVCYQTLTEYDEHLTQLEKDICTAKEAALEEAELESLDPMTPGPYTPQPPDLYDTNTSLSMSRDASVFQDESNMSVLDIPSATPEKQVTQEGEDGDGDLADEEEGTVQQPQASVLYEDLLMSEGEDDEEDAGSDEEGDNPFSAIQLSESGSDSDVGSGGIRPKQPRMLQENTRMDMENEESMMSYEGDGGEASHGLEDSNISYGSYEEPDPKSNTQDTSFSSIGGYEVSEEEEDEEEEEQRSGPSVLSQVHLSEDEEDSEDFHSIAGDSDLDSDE

[3] = target: T1, Bromodomain-containing protein 4 (Homo sapiens, UniProt O60885); assay: Displacement of biotinylated small-molecule ligand from recombinant His-tagged BRD4 bromodomain 1 (unknown origin) measured after 10 mins by TR-FRET assay
[4] = target: T1, Bromodomain-containing protein 4; assay: Displacement of biotinylated small-molecule ligand from recombinant His-tagged BRD4 bromodomain 2 (unknown origin) measured after 10 mins by TR-FRET assay
PC-9 [5] = assay: Cytotoxicity against human PC-9 cells assessed as decrease in cell number at 1 uM supplemented with fresh medium containing compound every 3 days for 9 days by Beckman Coulter counting method; type: functional; parameters: scale not given: the % may be the effect or the level left; settings: time 3 day
PC-9 [6] = assay: Cytotoxicity against human PC-9 cells assessed as decrease in drug tolerant population at 50 nM supplemented with fresh medium containing compound every 3 days for 9 days in presence of erlotinib by Beckman Coulter counting method; type: functional, cell-based; settings: time 9.0 day
PC-9 [7] = assay: Cytotoxicity against human PC-9 cells assessed as decrease in cell number at 50 nM supplemented with fresh medium containing compound every 3 days for 9 days by Beckman Coulter counting method; type: functional, cell-based; settings: time 3.0 day

| SMILES | IC50 [1] [µM] | IC50 [2] [µM] | IC50 [3] [µM] | IC50 [4] [µM] | Activity (PC-9 [5]) [%] | Activity (PC-9 [6]) | Activity (PC-9 [7]) |
| --- | --- | --- | --- | --- | --- | --- | --- |
| C/C=C/Cn1cc(-c2ccc(C(C)(C)O)cc2)c2cc[nH]c2c1=O | 4.7 | 5.5 | 3.3 | 6.1 |  |  |  |
| C#Cc1cccc(Nc2ncnc3cc(OCCOC)c(OCCOC)cc23)c1 [ERLOTINIB] |  |  |  |  | >98 |  |  |
| C/C=C/Cn1cc(-c2ccc(C(=O)N3CCOCC3)cc2)c2cc(C)[nH]c2c1=O | 0.81 | 0.75 | 1.6 | 6.7 |  |  |  |
| CC(/C=C/C(=O)NO)=C\[C@@H](C)C(=O)c1ccc(N(C)C)cc1 |  |  |  |  |  | Active | inactive |

Second part, led by results:

| IC50 [1] [µM] | IC50 [2] [µM] | IC50 [3] [µM] | IC50 [4] [µM] | SMILES | Activity (PC-9 [5]) [%] | Activity (PC-9 [6]) | Activity (PC-9 [7]) |
| --- | --- | --- | --- | --- | --- | --- | --- |
| 0.37 | 0.52 | 4.2 | 13.5 | C/C=C/Cn1cc(-c2ccc(C(=O)N3CCOCC3)c(C#N)c2)c2cc(C)[nH]c2c1=O |  |  |  |
| 1 | 2.8 | 6 | 14.4 | C/C=C/Cn1cc(-c2ccc(C(=O)N3CCOCC3)c(C)c2)c2cc(C)[nH]c2c1=O |  |  |  |
| 1 | 1.7 | 3.3 | 17.4 | C/C=C/Cn1cc(-c2ccc(C(=O)N3CCOCC3)c(OC)c2)c2cc(C)[nH]c2c1=O |  |  |  |
| 0.46 | 1.4 | 3.5 | 12.3 | C/C=C/Cn1cc(-c2ccc(C(=O)N3CCOCC3)c(Cl)c2)c2cc(C)[nH]c2c1=O |  |  |  |
